Test results reported in paper PMC11240139, “Exploring the antitumor potential of novel quinoline derivatives via tubulin polymerization inhibition in breast cancer; design, synthesis and molecular docking” (RSC Advances, 2024).

Tests used:
Assay type in all cases: cell-based
[1] = test system: HL-60(TB) (leukemia); experiment: NCI-60 SRB cytotoxicity screen; conditions: Homo sapiens, single dose 10 μM, read-out: growth inhibition (GI%)
[2] = test system: MOLT-4 (leukemia); experiment: NCI-60 SRB cytotoxicity screen; conditions: Homo sapiens; MOLT-4, single dose 10 μM; read-out: growth inhibition (GI%)
[3] = test system: HOP-92 (non-small cell lung cancer); experiment: NCI-60 SRB cytotoxicity screen; conditions: Homo sapiens; HOP-92, single dose 10 μM; read-out: growth inhibition (GI%)
[4] = test system: NCI-H226 (non-small cell lung cancer); experiment: NCI-60 SRB cytotoxicity screen; conditions: Homo sapiens; NCI-H226, single dose 10 μM; read-out: growth inhibition (GI%)
[5] = test system: NCI-H23 (non-small cell lung cancer); experiment: NCI-60 SRB cytotoxicity screen; conditions: Homo sapiens; NCI-H23, single dose 10 μM; read-out: growth inhibition (GI%)
[6] = test system: NCI-H322M (non-small cell lung cancer); experiment: NCI-60 SRB cytotoxicity screen; conditions: Homo sapiens, single dose 10 μM, read-out: growth inhibition (GI%)
[7] = test system: NCI-H460 (non-small cell lung cancer); experiment: NCI-60 SRB cytotoxicity screen; conditions: Homo sapiens; NCI-H460, single dose 10 μM; read-out: growth inhibition (GI%)
[8] = test system: HCC-2998 (colon cancer); experiment: NCI-60 SRB cytotoxicity screen; conditions: Homo sapiens; HCC-2998, single dose 10 μM; read-out: growth inhibition (GI%)
[9] = test system: HCT-116 (colon cancer); experiment: NCI-60 SRB cytotoxicity screen; conditions: Homo sapiens; HCT-116, single dose 10 μM; read-out: growth inhibition (GI%)
[10] = test system: HT29 (colon cancer); experiment: NCI-60 SRB cytotoxicity screen; conditions: Homo sapiens, HT-29; HT29, single dose 10 μM; read-out: growth inhibition (GI%)
[11] = test system: SW-620 (colon cancer); experiment: NCI-60 SRB cytotoxicity screen; conditions: Homo sapiens; SW-620, single dose 10 μM; read-out: growth inhibition (GI%)
[12] = test system: SF-539 (CNS cancer); experiment: NCI-60 SRB cytotoxicity screen; conditions: Homo sapiens; SF-539, single dose 10 μM; read-out: growth inhibition (GI%)
[13] = test system: SNB-19 (CNS cancer); experiment: NCI-60 SRB cytotoxicity screen; conditions: Homo sapiens; SNB-19, single dose 10 μM; read-out: growth inhibition (GI%)
[14] = test system: U251 (CNS cancer); experiment: NCI-60 SRB cytotoxicity screen; conditions: Homo sapiens, U-251; U251, single dose 10 μM; read-out: growth inhibition (GI%)
[15] = test system: M14 (melanoma); experiment: NCI-60 SRB cytotoxicity screen; conditions: Homo sapiens; M14, single dose 10 μM; read-out: growth inhibition (GI%)
[16] = test system: MDA-MB-435 (melanoma); experiment: NCI-60 SRB cytotoxicity screen; conditions: Homo sapiens, MDA-MB-435, read-out: growth inhibition (GI%);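 note: growth inhibition in percent at a single 10 µM dose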
[17] = test system: SK-MEL-28 (melanoma); experiment: NCI-60 SRB cytotoxicity screen; conditions: Homo sapiens; SK-MEL-28, single dose 10 μM; read-out: growth inhibition (GI%)
[18] = test system: SK-MEL-5 (melanoma); experiment: NCI-60 SRB cytotoxicity screen; conditions: Homo sapiens; SK-MEL-5, single dose 10 μM; read-out: growth inhibition (GI%)
[19] = test system: OVCAR-3 (ovarian cancer); experiment: NCI-60 SRB cytotoxicity screen; conditions: Homo sapiens; OVCAR-3, single dose 10 μM; read-out: growth inhibition (GI%)
[20] = test system: OVCAR-4 (ovarian cancer); experiment: NCI-60 SRB cytotoxicity screen; conditions: Homo sapiens; OVCAR-4, single dose 10 μM; read-out: growth inhibition (GI%)
[21] = test system: 786-0 (renal cancer); experiment: NCI-60 SRB cytotoxicity screen; conditions: Homo sapiens; 786-0, single dose 10 μM; read-out: growth inhibition (GI%)
[22] = test system: A498 (renal cancer); experiment: NCI-60 SRB cytotoxicity screen; conditions: Homo sapiens; A498, single dose 10 μM; read-out: growth inhibition (GI%)
[23] = test system: CAKI-1 (renal cancer); experiment: NCI-60 SRB cytotoxicity screen; conditions: Homo sapiens; CAKI-1, single dose 10 μM; read-out: growth inhibition (GI%)
[24] = test system: SN12C (renal cancer); experiment: NCI-60 SRB cytotoxicity screen; conditions: Homo sapiens, single dose 10 μM, read-out: growth inhibition (GI%)
[25] = test system: TK-10 (renal cancer); experiment: NCI-60 SRB cytotoxicity screen; conditions: Homo sapiens; TK-10, single dose 10 μM; read-out: growth inhibition (GI%)
[26] = test system: UO-31 (renal cancer); experiment: NCI-60 SRB cytotoxicity screen; conditions: Homo sapiens; UO-31, single dose 10 μM; read-out: growth inhibition (GI%)
[27] = test system: PC-3 (prostate cancer); experiment: NCI-60 SRB cytotoxicity screen; conditions: PC-3, single dose 10 μM; read-out: growth inhibition (GI%)
[28] = test system: MCF7 (breast cancer); experiment: NCI-60 SRB cytotoxicity screen; conditions: Homo sapiens; MCF7, single dose 10 μM; read-out: growth inhibition (GI%)
[29] = test system: MDA-MB-231/ATCC (breast cancer); experiment: NCI-60 SRB cytotoxicity screen; conditions: Homo sapiens, MDA-MB-231, read-out: growth inhibition (GI%);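 note: growth inhibition in percent at a single 10 µM dose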
[30] = test system: MDA-MB-468 (breast cancer); experiment: NCI-60 SRB cytotoxicity screen; conditions: Homo sapiens; MDA-MB-468, single dose 10 μM; read-out: growth inhibition (GI%)
How it was run: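 NCI-60 single-dose (10^−5 M) screen in MDA-MB-468 with SRB protein-stain read-out after 48 h exposure; cells TCA-fixed and absorbance read at 540 nm. Reported as GI%, with compounds meeting NCI activity criteria then run at five doses (0.01–100 μM).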

[31] = test system: 60 cancer cell lines (NCI); experiment: NCI-60 single-dose screen, overall verdict over the panel; conditions: single dose 10 μM, whole panel
How it was run: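 Compounds were tested at a single 10^−5 M dose across the NCI 60 cell line panel, with cells preincubated 24 h before treatment. Viability was measured by TCA fixation and sulforhodamine B staining, absorbance 540 nm. % cytotoxicity = [1 − (sample/negative control absorbance)] × 100.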

Row | SMILES | inhibition at 10 µM [1] [%] | inhibition at 10 µM [2] [%] | inhibition at 10 µM [3] [%] | inhibition at 10 µM [4] [%] | inhibition at 10 µM [5] [%] | inhibition at 10 µM [6] [%] | inhibition at 10 µM [7] [%] | inhibition at 10 µM [8] [%] | inhibition at 10 µM [9] [%] | inhibition at 10 µM [10] [%] | inhibition at 10 µM [11] [%] | inhibition at 10 µM [12] [%] | inhibition at 10 µM [13] [%] | inhibition at 10 µM [14] [%] | inhibition at 10 µM [15] [%] | inhibition at 10 µM [16] [%] | inhibition at 10 µM [17] [%] | inhibition at 10 µM [18] [%] | inhibition at 10 µM [19] [%] | inhibition at 10 µM [20] [%] | further results
1 | CCc1cccc2cc(-c3cc(-c4ccc(OC)c(OC)c4)[nH]c(=O)c3C#N)c(Cl)nc12 [Compound 4b, 4-(2-Chloro-8-ethylquinolin-3-yl)-6-(3,4-dimethoxyphenyl)-2-oxo-1,2-dihydropyridine-3-carbonitrile] | < 10 | < 10 | 11.3 | < 10 | < 10 | < 10 | < 10 | < 10 | < 10 | < 10 | < 10 | < 10 | < 10 | < 10 | < 10 | < 10 | < 10 | < 10 | < 10 | 14 | inhibition at 10 µM [21]: < 10%; inhibition at 10 µM [22]: < 10%; inhibition at 10 µM [23]: 39.2%; inhibition at 10 µM [24]: < 10%; inhibition at 10 µM [25]: < 10%; inhibition at 10 µM [26]: < 10%; inhibition at 10 µM [27]: < 10%; inhibition at 10 µM [28]: 11.3%; inhibition at 10 µM [29]: < 10%; inhibition at 10 µM [30]: < 10%; cytotoxic activity over the cell lines (in words) [31]: mild cytotoxic activity
2 | CCc1cccc2cc(C3C=C(c4ccc(Br)cc4)NC(=S)N3)c(Cl)nc12 (stereo not drawn) [Compound 6e, 6-(4-Bromophenyl)-4-(2-chloro-8-ethylquinolin-3-yl)-3,4-dihydropyrimidine-2(1H)-thione] | < 10 | 26.2 | < 10 | < 10 | < 10 | < 10 | < 10 | < 10 | 10.5 | 11.9 | < 10 | < 10 | < 10 | < 10 | < 10 | < 10 | < 10 | < 10 | < 10 | 10.2 | inhibition at 10 µM [21]: < 10%; inhibition at 10 µM [22]: < 10%; inhibition at 10 µM [23]: 10.4%; inhibition at 10 µM [24]: < 10%; inhibition at 10 µM [25]: < 10%; inhibition at 10 µM [26]: 32.7%; inhibition at 10 µM [27]: < 10%; inhibition at 10 µM [28]: 18.4%; inhibition at 10 µM [29]: < 10%; inhibition at 10 µM [30]: < 10%; cytotoxic activity over the cell lines (in words) [31]: limited cytotoxic activity
3 | CCc1cccc2cc(C=CC(=O)c3ccc(F)cc3)c(Cl)nc12 [Compound 3d, 3-(2-Chloro-8-ethylquinolin-3-yl)-1-(4-fluorophenyl)prop-2-en-1-one] | < 10 | < 10 | < 10 | < 10 | < 10 | < 10 | < 10 | < 10 | < 10 | < 10 | < 10 | 11 | < 10 | < 10 | < 10 | < 10 | < 10 | < 10 | < 10 | < 10 | inhibition at 10 µM [21]: < 10%; inhibition at 10 µM [22]: < 10%; inhibition at 10 µM [23]: 11.8%; inhibition at 10 µM [24]: < 10%; inhibition at 10 µM [25]: < 10%; inhibition at 10 µM [26]: < 10%; inhibition at 10 µM [27]: < 10%; inhibition at 10 µM [28]: < 10%; inhibition at 10 µM [29]: < 10%; inhibition at 10 µM [30]: < 10%; cytotoxic activity over the cell lines (in words) [31]: low cytotoxic activity
